Experimental data from patent publication US20070021329A1, “Treatment of hypersensitivity conditions” (THE University of QUEENSLAND, priority 2002, published 2007).

What was measured:
feline asthma = assay: Treatment of asthma in a tiger cub; format: in vivo, Bengal Tiger; details: for response of respiratory clinical signs to bronchodilators: terbutaline 0.3 mg/kg orally, Ventolin puffer 100 μg by inhalation
Method: Respiratory problems were first noticed in Kaasha, a female Bengal Tiger cub at the Dreamworld park, Australia, at the age of 10 weeks and around 10 kg body weight.
Approximately three weeks after initial clinical signs, the treatment included Clavulox (7 mg/kg administered subcutaneously), doxycycline (5 mg/kg administeredorally), and enrofloxacin (5 mg/kg administered subcutaneously) and terbutaline (0.3 mg/kg administered orally), nebulisation (saline) and percussion, use of Ventolin 100 μg by puffer inhalation and terbutaline (0.3 mg/kg administered orally) as necessary to control dyspnoea. Prednisolone was given as a single daily dose of 2 mg/kg, and Seretide (Salmeterol 50 μg plus fluticasone 250 μg) was given using a mask and spacer. […] This combination of treatment was maintained over the next month.
Consequently an experimental technique involving direct injection of Prednisolone sodium succinate, 1200 mg in a total volume of 30 ml (40 mg/ml aqueous solution), was instilled into the trachea under general anaesthesia.
Three weeks after the intra-airway steroid procedure, another experimental therapy was applied. […] (1) were administered at a dose rate of 0.3 mg/kg as single daily subcutaneous injections for six days, followed by twice-weekly injections for 8 weeks. At this time the dose of oral corticosteriod, Prednisolone approx 1 mg/kg reducing, had been reduced to 20 mg per day because of concern regarding side effects of prolonged high dose use.

dermal Arthus reaction [1] = assay: Reverse passive dermal Arthus reaction in the rat: vascular leakage (Evans blue); format: in vivo; details: intravenous, oral and topical pretreatment, FIG. 1
Method: (1) by oral gavage (10 mg kg^−1 dissolved in 10% ethanol/90% saline solution to a final volume of 200 μl) or an appropriate oral vehicle control 30 min prior to deposition of antibody. Female Wistar rats (150-250 g) were anaesthetised with ketamine (80 mg kg^−1 i.p.) and xylazine (12 mg kg^−1 i.p.).
(§1) The lateral surfaces of the rat were carefully shaved and 5 distinct sites on each lateral surface clearly delineated. A reverse passive Arthus reaction was induced in each dermal site by injecting Evans blue (15 mg kg^−1 i.v.), chicken ovalbumin (20 mg kg^−1 i.v.) into the femoral vein 10 min prior to the injection of antibody. Rabbit anti-chicken ovalbumin (saline only, 100, 200, 300 or 400 μg antibody in a final injection volume of 30 μL) was injected in duplicate at two separate dermal sites on each lateral surface of the rat, giving a total of 10 injection sites per rat. Rats were placed on a heating pad, and anaesthetic was maintained over a 4 h-treatment period with periodic collection of blood samples. […] Additionally, a second set of skin samples were placed in 1 mL of formamide overnight, and the absorbance of Evans blue extraction measured at 650 nm, as an indicator of serum leakage into the dermis. […] Data are shown as absorbance at 650nm as a percentage of the plasma absorbance, as mean values ±SEM (n=3-6). *indicates a P value ≦0.05 when compared to Arthus control values. […]

circulating TNFα = assay: Reverse passive dermal Arthus reaction in the rat: serum TNFα ELISA; format: in vivo; details: intravenous, oral and topical pretreatment, FIG. 2
Method: as §1, with “samples. Blood was allowed to spontaneously clot on ice, and serum samples were collected and stored at −20° C.” for “samples.”
Serum TNFα concentrations were measured using an enzyme-linked immunosorbent assay (ELISA) kit (Strachan et al., 2000). […]

dermal Arthus reaction [2] = assay: Reverse passive dermal Arthus reaction in the rat: pathology assessment (PMN infiltration score); format: in vivo; details: intravenous, oral and topical pretreatment, FIG. 3
Method: as §1
Rat skin samples were fixed in 10% buffered formalin for at least 10 days, and stained with haematoxylin and eosin using standard histological techniques. Dermal samples were analysed in a blind fashion for evidence of pathology, and the degree of rat PMN infiltration was scored on a scale of 0-4. […]

allergic dermatitis = assay: Treatment of allergic/atopic dermatitis in dogs; format: in vivo, dog
Excerpt: Because of the intermittent nature of the lameness the owner, a veterinarian, found it difficult to assess any improvement.
A very old dog (estimated age 13-16 years) admitted to a pound was diagnosed as having severe atopic dermatitis affecting 100% of the skin and the inside of the ear pinnae (otitis external, and keratoconjunctivitis sicca (“dry eye”). The dog had broken skin over the dorsum of the tail, and both eyes were encrusted with yellow exudate.
The sores on the tail resolved within 3 days.

[3] = system: demodectic dermatitis (Demodex canis infestation); assay: Treatment of flea allergy dermatitis and demodectic dermatitis in dogs; format: in vivo, dog
Excerpt: Demodex, also known as demodectic mange or red mange, is an infestation of the skin caused by the mite Demodex canis which causes dermatitis, skin thickening and hair loss, and is very common in dogs. This condition is thought to be due partially to impaired immune responses in the host. It is often associated with flea infestation, which itself can cause an allergic dermatitis. The skin irritation in infected animals is sometimes very extensive, and results in loss of hairs and severe skin rashes. […] (b) A mastiff pup (approximately 6 months old) was diagnosed as having demodex infestation (folliculitis) of the head, involving both eyelids. […] The eyes were red and discharging, and the dog squinted because of the ocular pain. […] This was applied to the eyelid lesion so that the lesion was wet, and was also instilled into the eyes. […] This was considered to be a very significant clinical response.

feline C5a receptor = assay: Binding to feline C5a receptor; design: species or system cat
equine receptor = assay: Binding to equine C5a receptor; design: species or system horse
[4] = dog, in vivo, sc
Excerpt: (§2) Blood samples were collected after 4 weeks of treatment. […] Biochemistry and haematology was repeated on the high-dose dog at this time.
(§3) The second dog was bled for haematology and biochemistry after a total of seven weeks treatment.

[5] = Safety observations in dogs treated with PMX53 (haematology, biochemistry, autopsy, injection site); details: both dogs; duration of the experiment
Excerpt: as §2, §3

[6] = old dog, topical 5 mg/ml once a day
[7] = mastiff pup, topical 10 mg/ml daily, after 5 days

Compound: CC(C)(C)NCC(O)c1ccc(O)c(CO)c1 (centres unmarked) [Ventolin, albuterol, reference compound]
- response of respiratory clinical signs to bronchodilators (feline asthma): responded rapidly

Compound: CC(C)(C)NCC(O)c1cc(O)cc(O)c1 (centres unmarked) [terbutaline, reference compound]
- response of respiratory clinical signs to bronchodilators (feline asthma): responded rapidly

Compound: AcF-[OPdChaWR] [PMX53]
- vascular leakage associated with a dermal Arthus reaction (dermal Arthus reaction [1]): inhibition of the vascular leakage
- rise in circulating TNFα associated with a dermal Arthus reaction (circulating TNFα): inhibition of the rise in circulating TNFα
- pathology index associated with a dermal Arthus reaction (dermal Arthus reaction [2]): reduction of the pathology index
- breathing and recovery time after episodes of dyspnoea (feline asthma; 0.3 mg/kg single daily subcutaneous injections for six days): moderate to marked improvement
- general breathing pattern and recovery time (feline asthma; 0.3 mg/kg subcutaneous twice-weekly injections): not as good during twice weekly treatments as it had been following daily injections, although recovery time was comparable
- playfulness, general activity level, appetite and general demeanour (feline asthma; together with reduction in oral cortisone dosage): marked improvement
- allergic dermatitis (allergic dermatitis; kelpie dog, 1 mg/kg/day PO): marked improvement in the dog's allergic dermatitis, which had apparently resolved completely
- time to resolution of sores on the tail (allergic dermatitis; old dog, severe atopic dermatitis, topical 5 mg/ml in 50% propylene glycol:50% water once a day): ≤ 3 days
- gait (allergic dermatitis; old dog, after treatment, initially very stilted gait): able to walk and trot freely
- eyes (keratoconjunctivitis sicca) (allergic dermatitis; old dog, eye-drop formulation 5 mg/ml in 30% polyethylene glycol:70% normal saline): improved to the point of being essentially normal in appearance
- itching (allergic dermatitis; [6]): no signs of itching
- thickening of the skin over the stifle and ischial tuberosity (allergic dermatitis; [6]): resolved noticeably
- severe allergic dermatitis (presumed flea allergy) (allergic dermatitis; second dog, 0.3 mg/kg s.c. once daily, FIG. 4): completely resolved
- eyelid inflammation / trichiasis ([3]; mastiff pup, eye drops 10 mg/ml once daily, over 5 days): inflammation resolved to the point that the trichiasis was relieved
- inflammation in the skin (head lesions) [3, 7]: inflammation in the skin was reduced
- mites in scrapings taken from the lesion [3, 7]: mites were still present
- inflammatory response in the skin ([3]; two dogs with demodectic dermatitis, 0.3 mg/kg s.c. for 13 days): significant reduction in the inflammatory response in the skin
- binding to the feline C5a receptor (feline C5a receptor): bind well
- binding to the equine receptor (equine receptor): binds less effectively
- irritation at the site of injection [4]: no evidence of irritation
- discomfort on injection ([4]; 0.3 mg/kg): No discomfort was noted
- haematology and biochemistry abnormalities ([4]; 0.3 mg/kg): No abnormalities were detected
- signs of drug toxicity [5]: no signs of drug toxicity

Compound: Prednisolone sodium succinate [reference compound]
- respiratory effort (feline asthma; 1200 mg in 30 ml instilled into the trachea, within 24 hours): rapid and marked improvement in respiratory effort
